Results taken from paper PMC4624780 (PLoS ONE, 2015).
“Also recorded” adds a separate entry of the source. Square brackets hold non-standard residues; d marks the D form. Peptide text beside a SMILES is read from it. Ahx = NCCCCCC(=O)O

System: FMDV 3A protein homodimerization in BHK-21 cells
Assay type: cell-based, foot-and-mouth disease virus (FMDV)

Molecule	3A dimerization (PLA fluorescent dots relative to cells incubated with no peptide)
CC[C@H](C)[C@H](NC(=O)[C@H](CC(C)C)NC(=O)[C@@H]1CCCN1C(=O)[C@H](CCCNC(=N)N)NC(=O)[C@H](CC(C)C)NC(=O)[C@H](CCC(=O)O)NC(=O)CCCCCNC(=O)[C@H](CCCNC(=N)N)NC(=O)[C@H](CCCNC(=N)N)NC(=O)[C@H](CCCNC(=N)N)NC(=O)[C@H](CCCNC(=N)N)NC(=O)[C@H](CCCNC(=N)N)NC(=O)[C@H](CCCNC(=N)N)NC(=O)[C@@H](N)CCCNC(=N)N)C(=O)N[C@@H](CCC(N)=O)C(=O)N[C@@H](CCC(N)=O)C(N)=O [Peptide R7-α2] (H-RRRRRRR[Ahx]ELRPLIQQ-NH2; N-terminus assumed)	lack of effect
RRRRRRRXFFEGMVHDS [Peptide R7-α1]	decreasing trend; also recorded: higher inhibitions
